According to patent US5607691A, “Compositions and methods for enhanced drug delivery” (priority 1995, dated 1997):
Structures can show the parent of a compound that is named as a salt.

Assay: in vitro
Assay type: in vitro ADME, human
Conditions: Table 5; human serum, 37° C.
Text: Table 4 lists the serum half-lives for several model compounds and two representative pharmaceutical agent-chemical modifier complexes using an in vitro assay system described in the Experimental section below. Of course, the serum half-lives will vary in vivo depending upon the age and health condition of the patient. Each complex comprises a model compound or a pharmaceutical agent, a spacer group, and a chemical modifier. Many of the model compounds utilize 4-nitrophenyl(ethanol, propanol, or cyclohexanol) or 4-nitrophenylethylamine as the "model" pharmaceutical agent. A more complete listing of serum half-lives may be found in the Experimental section below.
General procedure for serum hydrolysis of pharmaceutical agent-modifier complexes
Stock solutions (6 mM) of the pharmaceutical agent-modifier complexes were prepared in ethanol (by vortexing, sonication or warming at 37° C. if necessary). If required for solubility, a drop of dimethylsulfoxide, dimethylformamide or methanol may be added. (Acetonitrile cannot be used because it deactivates the serum enzymes.)
HPLC separation methods were established for each study by dilution of the above stock solution (6 μl) in acetonitrile (1 ml) to give a 36 μM solution. Samples (10 μl) were injected onto a Nucleosil 5C8 (250×4 mmID) and guard column (11×4 mm ID) and eluted with a mobile phase of approximately 65% HPLC grade water and 35% of a solution of 0.1% trifluoroacetic acid in acetonitrile, the exact proportions being adjusted in each case to give optimum separation and run times.
Freshly defrosted human serum (3 ml, Sigma) was warmed at 37° C. for five minutes and then 60 μl of the agent-modifier complex stock solution was added with vortexing. […] The aliquots were added to 800 μl of 2% zinc sulfate solution in a 1.5 ml disposable microcentrifuge tube, vortexed immediately and centrifuged at 14,000 RPM for 3 minutes. The supernatants (10 μl) were then injected onto the HPLC and peak areas were used to determine the % remaining. Serum blanks were prepared similarly by addition of serum to the zinc sulfate solution followed by centrifugation, and time=0 samples were also prepared by adding serum to the zinc sulfate solution followed by addition of the complex and separation by centrifugation. The time=0 samples, as well as the original stock solutions, were also used to study the stability of the complex in the absence of enzyme. Half-lives were calculated using the equation
by plotting time (x) vs. ln % remaining (y) to obtain the slope (m) and the y intercept (b).
In the case of `CC1OC(OC2C(C)OC(OC3C(C)OC(OC4CCC5(C)C(CCC6C5CC(OC(=O)OCOC(=O)CCCCC[N+](C)(C)C)C5(C)C(C7=CC(=O)OC7)CCC65O)C4)CC3OC(=O)OCOC(=O)CCCCC[N+](C)(C)C)CC2OC(=O)OCOC(=O)CCCCC[N+](C)(C)C)CC2OC(=O)OC12` (stereo not drawn) [digoxin-3',3",12-tris-(6-trimethylaminohexanoyloxymethyl carbonate)-3'",4""-cyclic carbonate, tribromide salt], the “Serum Half-life” value is reported as 14 h. With “digitoxigenin-3-(O-acetyl-D,L-carnitine) ester, (D isomer), chloride salt” the “Serum Half-life” value was ~ 50 min.

Same assay, conditions: human, serum
For `C#CC[N+](C)(C(C)Cc1ccccc1)C(C)OC(=O)CCC.[Br-]` (stereo not drawn) [deprenyl-N-butyroyloxy-1-ethyl, bromide salt], the “Serum Half-life” value was 0.467 h.

Same assay, conditions: human, serum, Table 4; human serum, 37° C.; read-out: In vitro Half-Life (converted)
With `CC(=O)O[C@H](CC(=O)NCCCCCC(=O)OCCc1ccc([N+](=O)[O-])cc1)C[N+](C)(C)C` [2-(4-Nitrophenyl)ethanol 6-(O-acetyl-L-carnitinamido)hexanoate ester, chloride salt] the half-life was 0.132 min. In the case of `O=C(CCCCCN1CCOCC1)OCCc1ccc([N+](=O)[O-])cc1` [2-(4-nitrophenyl)ethanol 6-morpholino-hexanoate], the half-life is reported as 0.463 min. `CC(=O)O[C@H](CC(=O)NCCCCCCOC(=O)OC(C)Cc1ccc([N+](=O)[O-])cc1)C[N+](C)(C)C` (stereo partly drawn) [1-(4-nitrophenyl)-2-propanol 6-(O-acetyl-L-carnitinamido)hexanol carbonate, chloride salt] gave a half-life of 3.5 min.

Same assay, conditions: human, serum, Table 4; read-out: serum half-life (converted)
For `CC(=O)O[C@H](CC(=O)NCCCCCC(=O)OCCc1ccc([N+](=O)[O-])cc1)C[N+](C)(C)C` [2-(4-Nitrophenyl)ethanol 6-(O-acetyl-L-carnitinamido)hexanoate ester, chloride salt], the half-life was 0.132 min.

Same assay, conditions: human, serum, Table 5; human serum, 37° C.; read-out: Serum Half-life (converted)
With `C[n+]1cccc(C(=O)OCCc2ccc([N+](=O)[O-])cc2)c1` [p-nitrophenylethyl alcohol trigonelline ester] the half-life was 28 min. In the case of `CC1OC(OC2C(O)CC(OC3C(O)CC(OC4CCC5(C)C(CCC6C5CC(O)C5(C)C(C7=CC(=O)OC7)CCC65O)C4)OC3C)OC2C)CC(O)C1OC(=O)CCC[N+](C)(C)C` (stereo not drawn) [digoxin-4'"-(4-trimethylamino)butyrate bromide], the half-life is reported as 420 min. `C[C@H]1O[C@@H](O[C@H]2[C@@H](O)C[C@H](O[C@H]3[C@@H](O)C[C@H](O[C@H]4CC[C@@]5(C)[C@H](CC[C@@H]6[C@@H]5C[C@@H](OC(=O)OC[N+](C)(C)CCCCCC(=O)O)[C@]5(C)[C@@H](C7=CC(=O)OC7)CC[C@]65O)C4)O[C@@H]3C)O[C@@H]2C)C[C@@H]2OC(=O)O[C@@H]21` [digoxin-12-[N-(5-carboxypentyl)-N,N-dimethylaminomethyl carbonate]-3"',4"'-cyclic carbonate, bromide salt] showed a half-life of 48 min. For `C[C@]12CC[C@@H]3c4ccc(O)cc4CC[C@H]3[C@@H]1CC[C@@H]2OC(=O)NCC(=O)OCC[N+](C)(C)C` [N-[3-hydroxy-estra-1,3,5(10-trien-17β-yl)oxycarbonyl] glycine (choline iodide) ester], the half-life was 1.62 min. In the case of `CCCCCCCCCCCC(=O)OCn1cc(F)c(=O)n(COC(=O)CCC[N+](C)(C)C)c1=O` [5-fluorouracil-1-(lauroyloxymethyl)-3-(4-trimethylammoniobutyroxyoxymethyl), iodide salt], the half-life is reported as 420 min. Work on `COc1cc(N)c(Cl)cc1C(=O)N[C@H]1CC[N+](CCCOc2ccc(F)cc2)(COC(=O)CCCCC[N+](C)(C)C)C[C@H]1OC` (relative stereo) [cisapride-N-(6-trimethylammoniohexanoyloxymethylammonio), diiodide salt] yielded a half-life of 60 min. For `CC(=O)O[C@H](CC(=O)NCCCCCC(=O)OCCc1ccc([N+](=O)[O-])cc1)C[N+](C)(C)C` [2-(4-Nitrophenyl)ethanol 6-(O-acetyl-L-carnitinamido)hexanoate ester, chloride salt], the half-life was 0.132 min. Work on `CN(Cc1cnc2nc(N)nc(N)c2n1)c1ccc(C(=O)N[C@@H](CCC(=O)OCC[N+](C)(C)C)C(=O)OCC[N+](C)(C)C)cc1` [methotrexate-bis-choline ester, dibromide salt] yielded a half-life of 840 min. With `Cn1c(=O)c2c(ncn2COC(=O)C[N+](C)(C)C)n(C)c1=O` [theophylline-7-(N,N,N,-trimethylglycyloxymethyl), iodide salt] the half-life was 0.5 min. In the case of `COc1ccc2c(c1)c(CC(=O)OCC[N+](C)(C)C)c(C)n2C(=O)c1ccc(Cl)cc1` [(indomethacinyl)choline iodide, indomethacinylcholine iodide], the half-life is reported as < 1 min. In the case of `CC(CCCC(=O)OC1CC2C(CCC3CC(OC4CC(O)C(OC5CC(O)C(OC6CC7OC(=O)OC7C(C)O6)C(C)O5)C(C)O4)CCC32C)C2(O)CCC(C3=CC(=O)OC3)C12C)OC(=O)CCC[N+](C)(C)C` (stereo not drawn) [digoxin-12-[5-(4-trimethylaminobutyroyloxy)-hexanoate]-3'",4'"-cyclic carbonate], the half-life is reported as 30200 min. With `C[C@]12CC[C@H]3[C@@H](CCC4=CC(=O)CC[C@@]43C)[C@@H]1CC[C@@H]2OC(=O)OCOC(=O)COC(=O)C[N+](C)(C)C` [testosterone-17-betainoyloxymethylcarbonyloxymethyl carbonate, iodide salt] the half-life was 8.5 min. Compound `CC1OC(OC2CCC3(C)C(CCC4C3CC(OC(=O)CCCCCN(C)C)C3(C)C(C5=CC(=O)OC5)CCC43O)C2)CC(O)C1OC1CC(O)C(OC2CC3OC(=O)OC3C(C)O2)C(C)O1` (stereo not drawn) [digoxin-12-[6-(N,N-dimethylamino)hexanoate]-3'",4'"-cyclic carbonate] has a half-life of 36300 min. `CCCCCCCCCCCC(=O)OC[N+]1(CCCOc2ccc(F)cc2)CC[C@H](NC(=O)c2cc(Cl)c(N)cc2OC)[C@H](OC)C1` (relative stereo) [cisapride-N-lauroyloxymethylammonio, iodide salt] gave a half-life of 5.4 min. `CC(=O)O[C@H](CC(=O)O[C@H]1CC[C@H]2[C@@H]3CCC4=CC(=O)CC[C@]4(C)[C@H]3CC[C@]12C)C[N+](C)(C)C` [testosterone-17-(O-acetyl-L-carnitinate), chloride salt] showed a half-life of 5760 min. `O=C(CCCCCN1CCOCC1)OCCc1ccc([N+](=O)[O-])cc1` [2-(4-nitrophenyl)ethanol 6-morpholino-hexanoate] gave a half-life of 0.463 min. In the case of `C#CC[N+](C)(COC(=O)OCC)C(C)Cc1ccccc1` (stereo not drawn) [deprenyl-N-ethoxycarbonyloxymethyl, iodide salt], the half-life is reported as 1.18 min. In the case of `CC(=O)O[C@H](CC(=O)O[C@H](C)[C@H](NC(=O)OCc1ccccc1)C(=O)OCc1ccccc1)C[N+](C)(C)C` [threonine, L-isomer, HO-(O-acetyl-L-carnitine ester), N-CBZ, benzyl ester], the half-life is reported as 40 min. Work on `COc1ccc2c(c1)c(CC(=O)OCCNC(=O)CCCCCN(C)C)c(C)n2C(=O)c1ccc(Cl)cc1` [indomethacin 2-[N-(6'-N',N'-dimethylamino)hexanamido]ethyl ester] yielded a half-life of 816 min. With `CC1OC(OC2C(O)CC(OC3C(O)CC(OC4CCC5(C)C(CCC6C5CC(O)C5(C)C(C7=CC(=O)OC7)CCC65O)C4)OC3C)OC2C)CC(O)C1OC(=O)OCC[N+](C)(C)C` (stereo not drawn) [digoxin-4'"-(choline chloride) carbonate ester] the half-life was 1.32 min. In the case of `CN(Cc1cnc2nc(N)nc(N)c2n1)c1ccc(C(=O)N[C@@H](CCC(=O)OCOC(=O)CCC[N+](C)(C)C)C(=O)OCOC(=O)CCC[N+](C)(C)C)cc1` [methotrexate-bis-(4-trimethylammoniobutyroyloxymethyl ester), diiodide salt], the half-life is reported as 108 min. In the case of `CCn1cc(C(=O)OCOC(=O)OCC[N+](C)(C)C)c(=O)c2ccc(C)nc21` [nalidixic acid, cholinecarbonato methyl ester, iodide salt], the half-life is reported as 1.27 min. `C[C@]12CCC(=O)C(OC(=O)OCC[N+](C)(C)C)=C1CC[C@@H]1[C@@H]2CC[C@]2(C)C(=O)CC[C@@H]12` [formestane-4-choline carbonate, bromide salt] gave a half-life of 26 min. `C#CC[N+](C)(COC(=O)OCCCCCCCC)C(C)Cc1ccccc1` (stereo not drawn) [deprenyl-N-octyloxycarbonyloxymethyl, iodide salt] showed a half-life of 0.433 min. Compound `CN(C)CC(=O)OCn1cnc2c1c(=O)n(C)c(=O)n2C` [theophylline-7-(N,N-dimethylglycyloxymethyl] has a half-life of 1680 min. Compound `C[C@]12CC[C@H](OC(=O)CCCCCN3CCOCC3)C[C@H]1CC[C@@H]1[C@@H]2CC[C@]2(C)[C@@H](C3=CC(=O)OC3)CC[C@]12O` [digitoxigenin-3-(6-morpholino-hexanoate)] has a half-life of 14900 min. With `CC(=O)[C@H]1CC[C@H]2[C@@H]3CC=C4C=C(OC(=O)CCC[N+](C)(C)C)CC[C@]4(C)[C@H]3CC[C@]12C` [progesterone-3-(4-N,N,N-trimethylammoniobutyrate) enol ester, bromide salt] the half-life was 180 min. `CC(=O)O[C@H](CC(=O)NCCCCCCOC(=O)OC(C)Cc1ccc([N+](=O)[O-])cc1)C[N+](C)(C)C` (stereo partly drawn) [1-(4-nitrophenyl)-2-propanol 6-(O-acetyl-L-carnitinamido)hexanol carbonate, chloride salt] showed a half-life of 3.5 min. `CC(=O)OC1CC(C(=O)O[C@H]2[C@@H](O)C[C@H](O[C@H]3[C@@H](O)C[C@H](O[C@H]4[C@@H](O)C[C@H](O[C@H]5CC[C@@]6(C)[C@H](CC[C@@H]7[C@@H]6C[C@@H](O)[C@]6(C)[C@@H](C8=CC(=O)OC8)CC[C@]76O)C5)O[C@@H]4C)O[C@@H]3C)O[C@@H]2C)[N+](C)(C)C1` (stereo partly drawn) [digoxin-4"'-[(O-acetyl)-betonicine ester], chloride salt] gave a half-life of 1.8 min.
